{"source": "patent US20060009493A1", "about": "“Indolinone hydrazides as c-Met inhibitors” (Sugen, Inc., priority 2003, published 2006)"}
{"molecular_target": "T1, GST fusion protein containing the Met kinase domain (Homo sapiens, UniProt P08581)", "T1 construct": "Purified GST fusion protein containing the Met kinase domain, Sugen, Inc", "T1 sequence (P08581 1078-1345 limits assumed)": "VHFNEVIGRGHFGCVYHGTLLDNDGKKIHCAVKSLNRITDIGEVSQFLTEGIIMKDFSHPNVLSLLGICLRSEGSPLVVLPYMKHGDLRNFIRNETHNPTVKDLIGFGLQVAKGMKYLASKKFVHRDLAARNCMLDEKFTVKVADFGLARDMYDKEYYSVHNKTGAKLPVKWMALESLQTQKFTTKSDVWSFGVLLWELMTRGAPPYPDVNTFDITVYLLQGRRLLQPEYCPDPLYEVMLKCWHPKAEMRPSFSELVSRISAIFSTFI", "test": "MET Transphosphorylation Assay (ELISA, poly(Glu,Tyr) 4:1 substrate)", "format": "biochemical", "conditions": "met transphosphorylation of poly(glutamic acid:tyrosine 4:1) substrate; two values in a cell separated by '/'", "outline": "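Poly(Glu-Tyr)-coated wells received the GST-Met kinase domain (10 ng/well) with compound in DMSO for 15 minutes. The reaction was started with ATP/MnCl2 in HEPES pH 7.5 buffer with vanadate, run 5 minutes, and stopped with EDTA. Phosphotyrosine was detected by anti-pTyr antibody, HRP secondary and ABTS/H2O2.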", "units": {"IC50": "µM"}}
{"compound": "COc1cccc2c1NC(=O)/C2=N\\NC(=O)Cc1ccc(O)cc1", "note": "[II-60, (4-Hydroxy-phenyl)-acetic acid [(3Z)-7-methoxy-2-oxo-1,2-dihydro-indol-3-ylidene]-hydrazide]", "IC50": 0.065}
{"compound": "CC(C)C(C(=O)N/N=C1\\C(=O)Nc2c(Cl)ccc(Cl)c21)c1ccc(O)cc1", "note": "(centres unmarked) [II-69, 2-(4-Hydroxy-phenyl)-3-methyl-butyric acid [(3Z)-4,7-dichloro-2-oxo-1,2-dihydro-indol-3-ylidene)-hydrazide]", "IC50": 0.17}
{"compound": "O=C(Cc1ccc(O)cc1)N/N=C1\\C(=O)Nc2c(C(=O)O)cccc21", "note": "[Example I-47, (3Z)-3-{[2-(4-Hydroxy-phenyl)-acetyl]-hydrazono}-2-oxo-2,3-dihydro-1H-indole-7-carboxylic acid]", "IC50": 14.6}
{"compound": "CC(C)Oc1ccc(CC(=O)N/N=C2\\C(=O)Nc3ccccc32)cc1", "note": "[II-9, (4-Isopropoxy-phenyl)-acetic acid [(3Z)-2-oxo-1,2-dihydro-indol-3-ylidene]-hydrazide]", "IC50": "> 20"}
{"compound": "Cc1ccc(C)c2c1NC(=O)/C2=N\\NC(=O)C(C)c1ccc(O)cc1", "note": "(centres unmarked) [II-57, 2-(4-Hydroxy-phenyl)-propionic acid [(3Z)-4,7-dimethyl-2-oxo-1,2-dihydro-indol-3-ylidene]-hydrazide]", "IC50": 0.016}
{"compound": "Cc1ccc(C)c2c1NC(=O)/C2=N\\NC(=O)CCc1ccc(O)cc1", "note": "[II-81, 3-(4-Hydroxy-phenyl)-propionic acid [(3Z)-4,7-dimethyl-2-oxo-1,2-dihydro-indol-3-ylidene]-hydrazide]", "IC50": 0.059}
{"compound": "O=C(Cc1ccccc1)N/N=C1\\C(=O)Nc2ccccc21", "note": "[II-3, Phenyl-acetic acid [(3Z)-2-oxo-1,2-dihydro-indol-3-ylidene]-hydrazide]", "IC50": 6.66}
{"compound": "CC(C(=O)N/N=C1\\C(=O)Nc2ccc(NC(=O)CN3CCCC3)cc21)c1ccc(F)cc1", "note": "(centres unmarked) [Example I-55, N-((3Z)-3-{[2-(4-Fluoro-phenyl)-propionyl]-hydrazono}-2-oxo-2,3-dihydro-1H-indol-5-yl)-2-pyrrolidin-1-yl-acetamide]", "IC50": 6.16}
{"compound": "Cc1ccc(C)c2c1NC(=O)/C2=N\\NC(=O)Cc1ccc(O)nc1", "note": "[II-50, (6-Hydroxy-pyridin-3-yl)-acetic acid [(3Z)-4,7-dimethyl-2-oxo-1,2-dihydro-indol-3-ylidene]-hydrazide]", "IC50": 0.037}
{"compound": "O=C1Nc2ccccc2/C1=N/NC(=O)C(F)(F)c1ccc(F)cc1", "note": "[Example I-32, Difluoro-(4-fluoro-phenyl)-acetic acid [(3Z)-2-oxo-1,2-dihydro-indol-3-ylidene]-hydrazide]", "IC50": "> 20"}
{"compound": "O=C(Cc1ccc(O)cc1)N/N=C1\\C(=O)Nc2c(Cl)ccc(Cl)c21", "note": "[II-38, (4-Hydroxy-phenyl)-acetic acid [(3Z)-4,7-dichloro-2-oxo-1,2-dihydro-indol-3-ylidene]-hydrazide]", "IC50": 0.013}
{"compound": "O=C(CCc1ccc(O)cc1)N/N=C1\\C(=O)Nc2ccccc21", "note": "[II-24, 3-(4-Hydroxy-phenyl)-propionic acid [(3E)-2-oxo-1,2-dihydro-indol-3-ylidene]-hydrazide]", "IC50": "> 20"}
{"compound": "N#Cc1cc(CC(=O)N/N=C2\\C(=O)Nc3ccc(C(=O)O)c(Cl)c32)ccc1O", "note": "[II-111, (3Z)-4-Chloro-3-{[2-(3-cyano-4-hydroxy-phenyl)-acetyl]-hydrazono}-2-oxo-2,3-dihydro-1H-indole-5-carboxylic acid]", "IC50": 3.34}
{"compound": "O=C(Cc1ccc(O)cc1)N/N=C1\\C(=O)Nc2cccc(Cl)c21", "note": "[II-39, (4-Hydroxy-phenyl)-acetic acid [(3Z)-4-chloro-2-oxo-1,2-dihydro-indol-3-ylidene]-hydrazide]", "IC50": 0.008}
{"compound": "O=C(Cc1ccc(O)c(O)c1)N/N=C1\\C(=O)Nc2ccccc21", "note": "[II-64, (3,4-Dihydroxy-phenyl)-acetic acid [(3E)-2-oxo-1,2-dihydro-indol-3-ylidene]-hydrazide]", "IC50": "> 20"}
{"compound": "N#Cc1cc(CC(=O)N/N=C2\\C(=O)Nc3c(Cl)ccc(Cl)c32)ccc1O", "note": "[II-109, (3-Cyano-4-hydroxy-phenyl)-acetic acid [(3Z)4,7-dichloro-2-oxo-1,2-dihydro-indol-3-ylidene)-hydrazide]", "IC50": 1.62}
{"compound": "O=C(Cc1ccc(O)cc1)N/N=C1\\C(=O)Nc2ncccc21", "note": "[Example I-49, (4-Hydroxy-phenyl)-acetic acid [(3Z)-2-oxo-1,2-dihydro-pyrrolo[2,3-b]pyridin-3-ylidene)-hydrazide]", "IC50": 0.23}
{"compound": "O=C(Cc1ccc(O)cc1)N/N=C1\\C(=O)Nc2c(Br)cc(Cl)cc21", "note": "[II-32, (4-Hydroxy-phenyl)-acetic acid [(3Z)-7-bromo-5-chloro-2-oxo-1,2-dihydro-indol-3-ylidene]-hydrazide]", "IC50": 0.054}
{"compound": "CC(C(=O)N/N=C1\\C(=O)Nc2c(Cl)ccc(Cl)c21)c1ccc(O)c(Br)c1", "note": "(centres unmarked) [II-104, 2-(3-Bromo-4-hydroxy-phenyl)-propionic acid [(3Z)-4,7-dichloro-2-oxo-1,2-dihydro-indol-3-ylidene]-hydrazide]", "IC50": 0.79}
{"compound": "COc1ccc2c(c1Cl)/C(=N/NC(=O)C(C)c1ccc(O)cc1)C(=O)N2", "note": "(centres unmarked) [II-99, 2-(4-Hydroxy-phenyl)-propionic acid [(3Z)-4-chloro-5-methoxy-2-oxo-1,2-dihydro-indol-3-ylidene)-hydrazide]", "IC50": 0.045}
{"compound": "O=C(Cc1cc(=O)[nH]c(=O)[nH]1)N/N=C1\\C(=O)Nc2ccccc21", "note": "[II-80, (2,6-Dioxo-1,2,3,6-tetrahydro-pyrimidin-4-yl)-acetic acid [(3Z)-2-oxo-1,2-dihydro-indol-3-ylidene)-hydrazide]", "IC50": "> 20"}
{"compound": "Cc1ccc(C)c2c1NC(=O)/C2=N\\NC(=O)C1Cc2ccccc2C1", "note": "[Example I-58, Indan-2-carboxylic acid [(3Z)-4,7-dimethyl-2-oxo-1,2-dihydro-indol-3-ylidene]-hydrazide]", "IC50": "> 20"}
{"compound": "COc1cc(Cl)c2c(c1Cl)/C(=N/NC(=O)Cc1ccc(O)cc1)C(=O)N2", "note": "[II-95, (4-Hydroxy-phenyl)-acetic acid [(3Z)-4,7-dichloro-5-methoxy-2-oxo-1,2-dihydro-indol-3-ylidene]-hydrazide]", "IC50": 0.032}
{"compound": "CN1CCN(S(=O)(=O)c2ccc3c(c2)/C(=N/NC(=O)Cc2ccc(O)cc2)C(=O)N3)CC1", "note": "[Example I-25, (4-Hydroxy-phenyl)-acetic acid [(3Z)-5-(4-methyl-piperazine-1-sulfonyl)-2-oxo-1,2-dihydro-indol-3-ylidene]-hydrazide]", "IC50": 0.077}
{"compound": "COc1ccc(CC(=O)N/N=C2\\C(=O)Nc3c(Cl)ccc(Cl)c32)cc1C#N", "note": "[II-106, (3-Cyano-4-methoxy-phenyl)-acetic acid [(3Z)-4,7-dichloro-2-oxo-1,2-dihydro-indol-3-ylidene]-hydrazide]", "IC50": "> 20"}
{"compound": "Cc1ccc(C)c2c1NC(=O)/C2=N\\NC(=O)Cc1ccccc1", "note": "[II-85, Phenyl-acetic acid [(3Z)-4,7-dimethyl-2-oxo-1,2-dihydro-indol-3-ylidene]-hydrazide]", "IC50": 0.091}
